From patent US8871794B2, “Small-molecule agonists for type-2 orexin receptor” (Board of Regents, The University of Texas System, priority 2008, dated 2014)

Key:
[1] = IP pharmacokinetics in C57BL/6 mice (plasma and brain); assay type: in vivo, mouse; conditions: 30 mg/kg IP, one of the two mice
[2] = target: T1, OX2R (Homo sapiens, UniProt O43614); assay: Intracellular Calcium Transient Assay in OX2R-expressing CHO cells; assay type: cell-based; parameters: expressed in transfected cells
T1 sequence (O43614 1-444): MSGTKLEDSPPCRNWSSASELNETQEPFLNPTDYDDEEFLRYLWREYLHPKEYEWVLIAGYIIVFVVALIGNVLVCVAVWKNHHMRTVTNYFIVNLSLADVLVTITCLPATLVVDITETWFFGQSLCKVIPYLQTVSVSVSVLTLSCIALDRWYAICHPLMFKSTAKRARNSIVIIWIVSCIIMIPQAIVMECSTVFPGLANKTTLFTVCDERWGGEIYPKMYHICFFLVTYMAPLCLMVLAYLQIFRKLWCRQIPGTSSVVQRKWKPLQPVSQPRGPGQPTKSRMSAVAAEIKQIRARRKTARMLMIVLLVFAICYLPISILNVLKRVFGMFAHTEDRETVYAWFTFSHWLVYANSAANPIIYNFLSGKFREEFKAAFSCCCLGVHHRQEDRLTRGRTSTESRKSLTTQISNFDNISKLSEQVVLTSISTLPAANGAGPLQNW
Procedure: DNA Construction: Open reading frames of OX1R, OX2R and GRP (control) receptor were inserted into a bicistronic retrovirus expression vector, pMXs-IRES-puror (pMXs-IP), which carried a FLAG™ epitope cDNA sequence at the beginning of the ORF sequences encoding their human polypeptides.
Transfection and retrovirus production: Transfection was carried out using FuGENE 6 (Roche Diagnostics Corp.) according to the manufacturer's recommendations. Retroviruse fluid was harvested after 48 hours post transfection.
Cell lines: To generate receptor expressing cells, CHO cells harboring ecotropic retroviral receptor were infected with a retroviral supernatant. After 24 hours post infection, the retrovirus supernatant was removed and infected cells were selected with 10 μg/ml of puromycin (Sigma-Aldrich, St. Louis, Mo.). […]
0.5 ml aliquot of the cell suspension was stimulated by addition of 5 μl of compound dissolved in DMSO. Changes of [Ca^2+]i transients in cells were measured at RT by using CAF-110 Intracellular Ion Analyser (JASCO, Tokyo) with the excitation wave lengths of 340 nm and 380 nm and emission wavelength of 500 nm

Ca2+ response [2]: robust Ca2+ response
Compound: Cc1ccc(Cn2c(=N)n(CC(O)c3ccc(Cl)c(Cl)c3)c3ccccc32)cc1 (centres unmarked) [Compound 130699]
acute reaction after injection [1]: abdominal guarding and decreased activity for up to one hour
